Experimental data published in patent US20250051724A1, “MEDIUM COMPOSITION FOR CULTURING PORCINE PLURIPOTENT STEM CELLS” (SPACE F CORPORATION, priority 2022, published 2025).

Experiments:
Format in all cases: cell-based
[1] = test system: porcine embryonic stem cells; conditions: for proportion of cells undergoing cell division / proliferation rate as the concentration increased (Ki-67): various concentrations in LDN-193189-containing medium
[2] = test system: porcine embryonic stem cells
[3] = test system: porcine embryonic stem cells; remark: listed apart in the source
Description: To analyze the effect of LDN-193189, which is an ALK2/3 inhibitor, on feeder cell-free culture of porcine embryonic stem cells, LDN-193189 cytotoxicity was confirmed through annexin V staining (FIG. 1). […] In addition, treatment at a concentration of 1000 nM or more for 24 hours or more induced apoptosis of most cells.
To confirm the optimal concentration of “FF-embryonic stem cell culture medium” containing LDN-193189 from 100 nM to 1000 nM, the concentration was subdivided and annexin V staining was performed (FIG. 3A). […] In fact, LDN-193189 is known to inhibit the activin A signaling system involved in stem cell proliferation at high concentrations.

[4] = test system: porcine embryonic stem cells; test: qPCR gene expression analysis in feeder cell-free culture; conditions: LDN-193189 250 nM, cultured without feeder cells
Description: To analyze the expression level of pluripotency-related genes, differentiation-related genes, and the like depending on the culture period, porcine embryonic stem cells were cultured using “FF-embryonic stem cell culture medium” containing 100 nM LDN-193189 (ff-ESCs^LDN+) and “FF-embryonic stem cell culture medium” not containing LDN-193189 (ff-ESCs^LDN−), without feeder cells, and porcine embryonic stem cells were cultured as a control using the aforementioned embryonic stem cell culture medium along with feeder cells (control ESCs).
The cells were obtained on days 2, 4 and 6 after plating using each medium. Total RNA was extracted using TRIzol reagent (Invitrogen, Carlsbad, USA) and cDNA was synthesized using High-Capacity RNA-to-cDNA Kit (Applied Biosystems, Foster City, USA). cDNA was amplified using the DyNAmo HS SYBR Green qPCR kit (Thermo Fisher Scientific, Waltham, USA) with the primer sets listed in Table 1.
In addition, as shown in C and D of FIG. 2, the effect of treatment with LDN-193189 (250 nM), which is an inhibitor of the SMAD1/5 signaling system, on feeder cell-free culture of porcine embryonic stem cells was confirmed.

[5] = test system: porcine embryonic stem cells; test: immunological staining of NANOG and SSEA4 in culture medium containing FBS; conditions: culture medium in which KSR was replaced with FBS
From the text: In addition, it was confirmed whether the substance helps maintain the pluripotency of porcine embryonic stem cells in a culture medium containing fetal bovine serum (FBS), rather than a serum replacement.
As a result of confirming the pluripotency markers NANOG and SSEA4 through immunological staining, the culture medium containing FBS induced differentiation of porcine embryonic stem cells, and many cell colonies with reduced expression of NANOG and SSEA4 were discovered.

[6] = test system: porcine embryonic stem cells; test: qPCR analysis in culture medium containing FBS; conditions: environment containing FBS
[7] = test system: porcine embryonic stem cells grown on feeder cells; test: pluripotency marker staining of cells grown on feeder cells
From the text: The effect of medium for feeder cell-free culture containing LDN-193189 on porcine embryonic stem cells grown on feeder cells was confirmed.

[8] = test system: porcine embryonic stem cells grown on feeder cells; test: qPCR analysis of cells grown on feeder cells
From the text: Treatment with LDN-193189 reduced the spontaneous differentiation of porcine embryonic stem cells grown on feeder cells and enhanced the expression of the SSEA4 marker. This is presumed to be because it suppresses the SMAD1/5 signaling system involved in mesodermal differentiation and activates the SMAD2/3 signaling involved in the proliferation of stem cells. In addition, qPCR analysis confirmed that treatment with LDN-193189 reduced the expression of genes involved in the development of various mesodermal tissues.

For `O=C(Nc1cccc2cccnc12)c1ccc(N2C(=O)[C@@H]3[C@H](C2=O)[C@@H]2C=C[C@H]3C2)cc1` [IWR-1], the “proportion of cells undergoing cell division / proliferation rate as the concentration increased (Ki-67)” value [1] was “gradually increased”, the cytotoxicity [2] was “showed cytotoxicity at high concentrations” and the “concentration showing the highest cellular activity” value ([2]; various concentrations) was 0.5 µM.

“FGF2: fibroblast growth factor 2 (hrFGF2, R&D Systems)” was tested, and the “proportion of cells undergoing cell division / proliferation rate as the concentration increased (Ki-67)” value [1] was “gradually increased” and the “concentration at which cell activity decreased due to cytotoxicity (WST-8)” value [2] was ≥ 100 ng/mL.

“activin A: ActA (activin; activin A) (R&D Systems), cytokine in culture medium” was tested, and the “concentration with decreased proliferation rate (Ki-67)” value [1] was ≥ 0.01 µg/mL and the “concentration at which cell activity decreased due to cytotoxicity (WST-8)” value [2] was ≥ 10 ng/mL.

`Cc1c[nH]c(-c2cnc(NCCNc3ccc(C#N)cn3)nc2-c2ccc(Cl)cc2Cl)n1` [CHIR99021] was tested, and the “proportion of cells undergoing cell division / proliferation rate as the concentration increased (Ki-67)” value [1] was “gradually decreased”.

`c1ccc2c(-c3cnn4cc(-c5ccc(N6CCNCC6)cc5)cnc34)ccnc2c1` [LDN-193189] was tested, and the “concentration with high cytotoxicity (annexin V staining)” value [3] was ≥ 1000 nM, the “expression of genes involved in pluripotency and mesodermal tissue development” value [4] was “restored to the level when cultured on the feeder cells” and the Ki-67 staining result ([1]; from 100 nM to 1000 nM) was “no significant difference”. The “final treatment concentration (maximum concentration that inhibits only the BMP signaling system and does not cause cytotoxicity)” value [2] was 100 nM, the “FBS-induced differentiation (colonies with reduced expression of NANOG and SSEA4)” value [5] was “alleviated” and the “expression of mesoderm-related genes (qPCR)” value [6] was “reduced”. For the same compound, the “expression of the SSEA4 marker” value [7] was “enhanced”, the spontaneous differentiation [7] was “reduced” and the “expression of genes involved in the development of mesodermal tissues (qPCR)” value [8] was “reduced”.
